Laboratory results: patent publication US6737383B1, “Herbicidal oxadiazolidines” (priority 1999, dated 2004)

Experiments:
[1] = test system: winter barley; assay: Test E winter barley; assay type: in vivo, Hordeum vulgare; settings: Preemergence
[2] = test system: pigweed; assay: Test B pre/postemergence pigweed; assay type: in vivo, Amaranthus retroflexus
How it was run: (§1)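 Test chemicals in a non-phytotoxic solvent mixture with surfactant were sprayed preemergence onto planted seeds and postemergence onto plants 2 to 18 cm tall (1- to 4-leaf stage). After twelve to sixteen days in a greenhouse, injury was visually rated against untreated controls from 0 (no effect) to 10 (complete control).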

[3] = test system: sugar beet; assay: Test B pre/postemergence sugar beet; assay type: in vivo, Beta vulgaris
How it was run: as §1

[4] = test system: blackgrass; assay: Test E blackgrass; assay type: in vivo, Alopecurus myosuroides; settings: Preemergence
[5] = test system: winter wheat; assay: Test E winter wheat; assay type: in vivo, Triticum aestivum; settings: Preemergence
[6] = test system: green foxtail; assay: Test E green foxtail; assay type: in vivo, Setaria viridis; settings: Preemergence
[7] = test system: Italian ryegrass; assay: Test E Italian ryegrass; assay type: in vivo, Lolium multiflorum; settings: Preemergence
[8] = test system: wild oat; assay: Test E wild oat; assay type: in vivo, Avena fatua; settings: Preemergence
[9] = test system: winter wheat; assay: Test E winter wheat; assay type: in vivo, Triticum aestivum; settings: Postemergence
How it was run: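 For postemergence, application to 1- to 4-leaf plants growing in a 60:40 sandy loam–potting mix substrate. Formulation: non-phytotoxic solvent mixture plus surfactant. Untreated controls served as the reference for the visual rating after ~21–28 days.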

[10] = test system: rape; assay: Test B pre/postemergence rape; assay type: in vivo, Brassica napus
How it was run: as §1

[11] = Rate 500 g/ha, 0 to 100 scale (0 no effect, 100 complete control)
[12] = Rate 1000 g/ha, 0 to 100 scale, 0 no effect, 100 complete control
[13] = Preemergence, Rate 31 g/ha, visual rating, scale 0 to 10 (0 no effect, 10 complete control)
[14] = Preemergence, Rate 62 g/ha, scale of 0 to 10 where 0 is no effect and 10 is complete control
[15] = Preemergence, Rate 250 g/ha, scale of 0 to 10 where 0 is no effect and 10 is complete control
[16] = Rate 31 g/ha, Postemergence, scale 0 to 10
[17] = Rate 62 g/ha, Postemergence, scale 0 to 10 (0 no effect, 10 complete control)
[18] = Rate 125 g/ha, Postemergence, scale of 0 to 10 where 0 is no effect and 10 is complete control
[19] = Rate 125 g/ha, Preemergence, scale of 0 to 10 where 0 is no effect and 10 is complete control
[20] = Rate 250 g/ha, Postemergence, scale of 0 to 10 where 0 is no effect and 10 is complete control
[21] = Rate 1000 g/ha, 0 to 100 scale where 0 is no effect and 100 is complete control
[22] = Rate 500 g/ha, 0 to 100 scale, 0 is no effect, 100 is complete control
[23] = Rate 250 g/ha, 0 to 100 scale, 0 no effect, 100 complete control
[24] = Preemergence, Rate 500 g/ha, scale of 0 to 10 where 0 is no effect and 10 is complete control
[25] = Rate 250 g/ha, 0 to 100 scale, 0 is no effect, 100 is complete control
[26] = Rate 125 g/ha, 0 to 100 scale (0 no effect, 100 complete control)
[27] = Postemergence, Rate 125 g/ha, scale 0 to 10, 0 is no effect, 10 is complete control
[28] = Postemergence, Rate 250 g/ha, scale 0 to 10, 0 is no effect, 10 is complete control
[29] = Preemergence, Rate 62 g/ha, scale 0 to 10 (0 no effect, 10 complete control)
[30] = Rate 62 g/ha, Postemergence, scale of 0 to 10 where 0 is no effect and 10 is complete control
[31] = Rate 500 g/ha, Postemergence, scale 0 to 10, 0 no effect, 10 complete control

## CC(C)=CCn1c(=O)on(C(=O)N(c2ccc(F)cc2)C(C)C)c1=O [Compound 288]
[1]; Rate 250 g/ha
  Barley (winter) plant response rating (0 to 100 scale): 0
[1]; [11]
  Plant response rating, Barley (winter): 5
[1]; [12]
  Plant response rating, Barley (winter): 10
[2]; [13]
  Redroot pigweed plant response rating: 0
[2]; [14]
  Redroot pigweed plant response rating: 0
[2]; [15]
  Redroot pigweed plant response rating: 0
[2]; [16]
  Redroot pigweed plant response rating: 0
[2]; [17]
  Redroot pigweed plant response rating: 0
[2]; [18]
  Redroot pigweed plant response rating: 0
[2]; [19]
  Redroot pigweed plant response rating: 0
[2]; [20]
  Plant response rating, Redroot pigweed: 0
[3]; [13]
  Sugarbeets plant response rating: 0
[3]; [14]
  Sugarbeets plant response rating: 0
[3]; [15]
  Sugarbeets plant response rating: 0
[3]; [17]
  Sugarbeets plant response rating: 0
[3]; [18]
  Sugarbeets plant response rating: 0
[3]; [19]
  Sugarbeets plant response rating: 0
[3]; [20]
  Plant response rating, Sugarbeets: 0
[4]; Rate 250 g/ha
  Blackgrass plant response rating (0 to 100 scale): 50
[4]; [11]
  Plant response rating, Blackgrass: 50
[5]; Rate 250 g/ha
  Wheat (winter) plant response rating (0 to 100 scale): 40
[5]; [11]
  Plant response rating, Wheat (winter): 30
[5]; [12]
  Plant response rating, Wheat (winter): 55
[6]; Rate 250 g/ha
  Green foxtail plant response rating (0 to 100 scale): 50
[6]; [11]
  Plant response rating, Green foxtail: 60
[6]; [12]
  Plant response rating, Green foxtail: 100
[7]; Rate 250 g/ha
  I. Ryegrass plant response rating (0 to 100 scale): 30
[7]; [11]
  Plant response rating, I. Ryegrass: 50
[7]; [12]
  Plant response rating, I. Ryegrass: 60
[8]; Rate 250 g/ha
  Wild oat plant response rating (0 to 100 scale): 20
[8]; [11]
  Plant response rating, Wild oat: 30
[8]; [12]
  Plant response rating, Wild oat: 50
[9]; [21]
  Plant response rating, Wheat (winter): 40
[9]; Rate 250 g/ha, 0 to 100 scale where 0 is no effect and 100 is complete control
  Wheat (winter) plant response rating: 35
[9]; [22]
  Plant response rating, Wheat (winter): 30
[10]; [13]
  Rape plant response rating: 0
[10]; [14]
  Rape plant response rating: 0
[10]; [15]
  Rape plant response rating: 0
[10]; [16]
  Rape plant response rating: 0
[10]; [17]
  Rape plant response rating: 1
[10]; [18]
  Rape plant response rating: 2
[10]; [19]
  Rape plant response rating: 0
[10]; [20]
  Plant response rating, Rape: 3

## CCN(CC)C(=O)n1oc(=O)n(C2CC2)c1=O [Compound 297]
[1]; [23]
  Plant response rating, Barley (winter): 50
[1]; [11]
  Plant response rating, Barley (winter): 55
[1]; [12]
  Plant response rating, Barley (winter): 60
[2]; [14]
  Redroot pigweed plant response rating: 0
[2]; [15]
  Redroot pigweed plant response rating: 0
[2]; [24]
  Plant response rating, Redroot pigweed: 0
[2]; [17]
  Redroot pigweed plant response rating: 0
[2]; [18]
  Redroot pigweed plant response rating: 0
[2]; [19]
  Redroot pigweed plant response rating: 0
[2]; [20]
  Plant response rating, Redroot pigweed: 0
[3]; [14]
  Sugarbeets plant response rating: 0
[3]; [15]
  Sugarbeets plant response rating: 0
[3]; [24]
  Plant response rating, Sugarbeets: 0
[3]; [17]
  Sugarbeets plant response rating: 0
[3]; [18]
  Sugarbeets plant response rating: 0
[3]; [19]
  Sugarbeets plant response rating: 0
[3]; [20]
  Plant response rating, Sugarbeets: 0
[4]; Rate 250 g/ha, 0 to 100 scale
  Plant response rating, Blackgrass: 40
[4]; [11]
  Plant response rating, Blackgrass: 20
[4]; [12]
  Plant response rating, Blackgrass: 50
[5]; Rate 250 g/ha, 0 to 100 scale
  Plant response rating, Wheat (winter): 30
[5]; [11]
  Plant response rating, Wheat (winter): 60
[5]; [12]
  Plant response rating, Wheat (winter): 70
[6]; Rate 250 g/ha, 0 to 100 scale
  Plant response rating, Green foxtail: 60
[6]; [11]
  Plant response rating, Green foxtail: 60
[6]; [12]
  Plant response rating, Green foxtail: 60
[7]; Rate 250 g/ha, 0 to 100 scale
  Plant response rating, I. Ryegrass: 60
[7]; [11]
  Plant response rating, I. Ryegrass: 50
[7]; [12]
  Plant response rating, I. Ryegrass: 40
[8]; Rate 250 g/ha, 0 to 100 scale
  Plant response rating, Wild oat: 70
[8]; [11]
  Plant response rating, Wild oat: 60
[8]; [12]
  Plant response rating, Wild oat: 70
[9]; [25]
  Plant response rating, Wheat (winter): 50
[9]; [21]
  Plant response rating, Wheat (winter): 70
[9]; [22]
  Plant response rating, Wheat (winter): 60
[10]; [14]
  Rape plant response rating: 0
[10]; [15]
  Rape plant response rating: 0
[10]; [24]
  Plant response rating, Rape: 0
[10]; [17]
  Rape plant response rating: 0
[10]; [18]
  Rape plant response rating: 0
[10]; [19]
  Rape plant response rating: 0
[10]; [20]
  Plant response rating, Rape: 0

## CC(C)N(C(=O)n1oc(=O)n(C(C)CCl)c1=O)c1ccc(F)cc1 (stereo not drawn) [Compound 367]
[1]; [26]
  Plant response rating, Barley (winter): 20
[1]; [23]
  Plant response rating, Barley (winter): 30
[2]; [27]
  Plant response rating, Redroot pigweed: 0
[2]; [28]
  Plant response rating, Redroot pigweed: 0
[2]; [29]
  Plant response rating, Redroot pigweed: 10
[2]; Preemergence, Rate 125 g/ha
  Redroot pigweed plant response rating (0 to 10 scale): 10
[2]; [15]
  Redroot pigweed plant response rating: 10
[2]; [24]
  Redroot pigweed plant response rating: 10
[2]; [30]
  Redroot pigweed plant response rating: 0
[2]; [31]
  Plant response rating, Redroot pigweed: 7
[3]; [27]
  Plant response rating, Sugarbeets: 0
[3]; [28]
  Plant response rating, Sugarbeets: 0
[3]; [29]
  Plant response rating, Sugarbeets: 2
[3]; Preemergence, Rate 125 g/ha
  Sugarbeets plant response rating (0 to 10 scale): 4
[3]; [15]
  Sugarbeets plant response rating: 7
[3]; [24]
  Sugarbeets plant response rating: 9
[3]; [30]
  Sugarbeets plant response rating: 0
[3]; [31]
  Plant response rating, Sugarbeets: 7
[4]; [26]
  Plant response rating, Blackgrass: 60
[4]; Rate 250 g/ha, 0 to 100 scale
  Plant response rating, Blackgrass: 30
[5]; [26]
  Plant response rating, Wheat (winter): 60
[5]; Rate 250 g/ha, 0 to 100 scale
  Plant response rating, Wheat (winter): 40
[6]; [26]
  Plant response rating, Green foxtail: 70
[6]; Rate 250 g/ha, 0 to 100 scale
  Plant response rating, Green foxtail: 50
[7]; [26]
  Plant response rating, I. Ryegrass: 60
[7]; Rate 250 g/ha, 0 to 100 scale
  Plant response rating, I. Ryegrass: 60
[8]; [26]
  Plant response rating, Wild oat: 55
[8]; Rate 250 g/ha, 0 to 100 scale
  Plant response rating, Wild oat: 50
[9]; Rate 125 g/ha, 0 to 100 scale, 0 is no effect, 100 is complete control
  Plant response rating, Wheat (winter): 50
[9]; [25]
  Plant response rating, Wheat (winter): 40
[10]; [27]
  Plant response rating, Rape: 0
[10]; [28]
  Plant response rating, Rape: 0
[10]; [29]
  Plant response rating, Rape: 0
[10]; Preemergence, Rate 125 g/ha
  Rape plant response rating (0 to 10 scale): 3
[10]; [15]
  Rape plant response rating: 5
[10]; [24]
  Rape plant response rating: 10
[10]; [30]
  Rape plant response rating: 0
[10]; [31]
  Plant response rating, Rape: 4
